Measured values reported in paper PMC3759966 (The Biochemical journal, 2009).
Blank lines part the entries; values can stand above or below the compound they belong to.

How the values were obtained:
[1] = target: T1, SGK1 (Homo sapiens, UniProt O00141); assay: Kinase profiling panel; type: biochemical; settings: read-out: percentage of kinase activity compared with control
T1 sequence (O00141 1-431): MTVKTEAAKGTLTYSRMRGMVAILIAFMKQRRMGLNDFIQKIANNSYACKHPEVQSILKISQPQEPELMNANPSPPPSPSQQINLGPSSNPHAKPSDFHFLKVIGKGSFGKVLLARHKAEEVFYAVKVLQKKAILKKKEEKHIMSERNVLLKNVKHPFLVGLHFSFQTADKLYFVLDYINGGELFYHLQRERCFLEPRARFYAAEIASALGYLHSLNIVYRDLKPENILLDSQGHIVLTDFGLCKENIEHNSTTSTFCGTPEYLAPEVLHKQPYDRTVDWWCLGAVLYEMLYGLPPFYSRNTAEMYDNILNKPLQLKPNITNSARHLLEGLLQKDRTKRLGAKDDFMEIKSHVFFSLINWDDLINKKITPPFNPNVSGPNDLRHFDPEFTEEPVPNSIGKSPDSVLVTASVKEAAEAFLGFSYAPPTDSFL

[2] = target: PKCα (Homo sapiens, UniProt P17252); assay: Kinase profiling panel; type: biochemical; settings: read-out: percentage of kinase activity compared with control
[3] = target: SmMLCK (Homo sapiens, UniProt Q15746); assay: Kinase profiling panel; type: biochemical; settings: read-out: percentage of kinase activity compared with control
[4] = target: PHK (Homo sapiens, UniProt Q16816); assay: Kinase profiling panel; type: biochemical; settings: read-out: percentage of kinase activity compared with control
[5] = target: Aurora B kinase (Homo sapiens, UniProt Q96GD4); assay: Kinase profiling panel; type: biochemical; settings: read-out: percentage of kinase activity compared with control
[6] = test system: AMPK; assay: Kinase profiling panel; type: biochemical; settings: 0.1 μM inhibitor
[7] = target: T2, BRSK2 (Homo sapiens, UniProt Q8IWQ3); assay: Kinase profiling panel; type: biochemical; settings: read-out: percentage of kinase activity compared with control
T2 sequence (Q8IWQ3 1-736): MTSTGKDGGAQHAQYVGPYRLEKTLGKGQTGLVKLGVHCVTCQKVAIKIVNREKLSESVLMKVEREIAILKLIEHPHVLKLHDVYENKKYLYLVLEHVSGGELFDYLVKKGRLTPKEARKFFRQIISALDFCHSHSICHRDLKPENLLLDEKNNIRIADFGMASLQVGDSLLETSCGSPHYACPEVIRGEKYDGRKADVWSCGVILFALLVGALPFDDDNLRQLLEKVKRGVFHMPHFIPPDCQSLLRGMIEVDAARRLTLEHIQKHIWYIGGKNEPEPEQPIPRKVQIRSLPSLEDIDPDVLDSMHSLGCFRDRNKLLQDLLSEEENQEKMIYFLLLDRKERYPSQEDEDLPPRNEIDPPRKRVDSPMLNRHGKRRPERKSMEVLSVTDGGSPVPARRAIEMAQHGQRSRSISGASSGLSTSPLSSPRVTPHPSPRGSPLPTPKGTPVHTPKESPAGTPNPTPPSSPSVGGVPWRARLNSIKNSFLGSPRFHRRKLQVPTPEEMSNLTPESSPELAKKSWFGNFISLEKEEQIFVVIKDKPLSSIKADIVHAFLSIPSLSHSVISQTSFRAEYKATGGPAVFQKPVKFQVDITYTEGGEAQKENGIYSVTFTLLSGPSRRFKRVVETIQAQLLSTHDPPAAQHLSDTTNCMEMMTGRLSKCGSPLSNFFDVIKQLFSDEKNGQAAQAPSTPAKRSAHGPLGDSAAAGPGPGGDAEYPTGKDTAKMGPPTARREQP

[8] = target: CK2 (Homo sapiens, UniProt P68400); assay: Kinase profiling panel; type: biochemical; settings: read-out: percentage of kinase activity compared with control
[9] = target: PAK4 (Homo sapiens, UniProt O96013); assay: Kinase profiling panel; type: biochemical; settings: read-out: percentage of kinase activity compared with control
[10] = target: T3, GCK (Homo sapiens, UniProt Q12851); assay: Kinase profiling panel; type: biochemical; settings: read-out: percentage of kinase activity compared with control
T3 sequence (Q12851 1-820): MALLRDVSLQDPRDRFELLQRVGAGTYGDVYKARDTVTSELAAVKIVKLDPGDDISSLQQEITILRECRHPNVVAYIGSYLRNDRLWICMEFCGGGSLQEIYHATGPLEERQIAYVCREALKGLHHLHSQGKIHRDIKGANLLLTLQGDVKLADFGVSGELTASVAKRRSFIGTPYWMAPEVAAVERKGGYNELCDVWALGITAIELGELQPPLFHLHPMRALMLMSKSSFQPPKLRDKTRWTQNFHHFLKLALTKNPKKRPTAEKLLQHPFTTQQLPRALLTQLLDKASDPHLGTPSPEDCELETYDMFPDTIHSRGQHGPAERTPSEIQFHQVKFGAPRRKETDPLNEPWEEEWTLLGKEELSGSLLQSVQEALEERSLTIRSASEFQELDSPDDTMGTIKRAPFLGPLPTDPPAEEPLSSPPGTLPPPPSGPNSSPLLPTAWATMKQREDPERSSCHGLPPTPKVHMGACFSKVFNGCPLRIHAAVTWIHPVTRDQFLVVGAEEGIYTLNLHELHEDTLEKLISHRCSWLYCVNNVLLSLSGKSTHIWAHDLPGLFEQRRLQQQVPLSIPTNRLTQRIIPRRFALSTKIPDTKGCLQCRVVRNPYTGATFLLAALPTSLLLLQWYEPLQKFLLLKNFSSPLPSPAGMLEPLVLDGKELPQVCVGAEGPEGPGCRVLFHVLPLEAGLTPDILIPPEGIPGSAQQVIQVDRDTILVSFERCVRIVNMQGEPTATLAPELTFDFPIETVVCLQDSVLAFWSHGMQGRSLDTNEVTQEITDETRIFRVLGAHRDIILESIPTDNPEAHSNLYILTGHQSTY

[11] = target: T4, TTK (Homo sapiens, UniProt P33981); assay: Kinase profiling panel; type: biochemical; settings: read-out: percentage of kinase activity compared with control
T4 sequence (P33981 1-857): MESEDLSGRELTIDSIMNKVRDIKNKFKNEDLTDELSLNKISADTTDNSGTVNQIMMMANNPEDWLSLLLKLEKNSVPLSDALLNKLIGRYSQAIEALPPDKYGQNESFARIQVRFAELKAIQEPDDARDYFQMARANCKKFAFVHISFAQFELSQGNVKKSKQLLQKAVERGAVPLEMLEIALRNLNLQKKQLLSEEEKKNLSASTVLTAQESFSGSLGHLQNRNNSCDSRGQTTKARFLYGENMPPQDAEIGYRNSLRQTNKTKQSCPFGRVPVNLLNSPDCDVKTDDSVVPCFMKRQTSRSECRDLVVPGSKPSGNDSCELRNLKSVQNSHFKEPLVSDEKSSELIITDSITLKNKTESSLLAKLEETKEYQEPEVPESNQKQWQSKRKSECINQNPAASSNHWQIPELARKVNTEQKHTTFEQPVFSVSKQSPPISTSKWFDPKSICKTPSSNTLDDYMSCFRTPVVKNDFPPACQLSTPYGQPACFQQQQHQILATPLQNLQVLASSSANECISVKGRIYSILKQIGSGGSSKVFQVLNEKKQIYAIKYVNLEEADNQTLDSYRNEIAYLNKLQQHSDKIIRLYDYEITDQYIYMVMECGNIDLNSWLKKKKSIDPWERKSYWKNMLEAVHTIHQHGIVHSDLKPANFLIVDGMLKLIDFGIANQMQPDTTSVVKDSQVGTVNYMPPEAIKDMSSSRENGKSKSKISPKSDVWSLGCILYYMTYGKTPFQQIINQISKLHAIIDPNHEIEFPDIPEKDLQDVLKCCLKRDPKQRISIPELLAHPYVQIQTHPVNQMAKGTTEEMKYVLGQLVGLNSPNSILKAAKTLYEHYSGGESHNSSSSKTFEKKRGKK

[12] = target: FGFR1 (Homo sapiens, UniProt P11362); assay: Kinase profiling panel; type: biochemical; settings: read-out: percentage of kinase activity compared with control
[13] = target: IRR (Homo sapiens, UniProt P14616); assay: Kinase profiling panel; type: biochemical; settings: read-out: percentage of kinase activity compared with control
[14] = target: IGF-1R (Homo sapiens, UniProt P08069); assay: Kinase profiling panel; type: biochemical; settings: read-out: percentage of kinase activity compared with control
[15] = test system: ERM protein phosphorylation (site equivalent to Thr567 of ezrin); assay: ERM protein phosphorylation in HEK-293 cells; type: cell-based, human; settings: 10 μM, 1 h; in the presence or absence of G14V-Rho
[16] = target: endogenous LRRK2 from Swiss-3T3 cells (Mus musculus, UniProt Q5S006); assay: Kinase assay of immunoprecipitated endogenous LRRK2 with Nictide; type: biochemical; settings: Swiss-3T3 immunoprecipitates, Nictide substrate
[17] = test system: panel of 85 protein kinases; assay: Selectivity over kinase panel; type: biochemical; settings: 1 μM; out of the 85 kinases profiled
[18] = test system: LRRK2; settings: cited from earlier work
[19] = target: T5, GST–LRRK2[G2019S]-(1326–2527) (Homo sapiens, UniProt Q5S007, G2019S); assay: Peptide kinase assay with inhibitors; type: biochemical; settings: for inhibition of LRRK2[G2019S] (in words): 100 μM ATP
T5 sequence (Q5S007 1326-2527 G2019S): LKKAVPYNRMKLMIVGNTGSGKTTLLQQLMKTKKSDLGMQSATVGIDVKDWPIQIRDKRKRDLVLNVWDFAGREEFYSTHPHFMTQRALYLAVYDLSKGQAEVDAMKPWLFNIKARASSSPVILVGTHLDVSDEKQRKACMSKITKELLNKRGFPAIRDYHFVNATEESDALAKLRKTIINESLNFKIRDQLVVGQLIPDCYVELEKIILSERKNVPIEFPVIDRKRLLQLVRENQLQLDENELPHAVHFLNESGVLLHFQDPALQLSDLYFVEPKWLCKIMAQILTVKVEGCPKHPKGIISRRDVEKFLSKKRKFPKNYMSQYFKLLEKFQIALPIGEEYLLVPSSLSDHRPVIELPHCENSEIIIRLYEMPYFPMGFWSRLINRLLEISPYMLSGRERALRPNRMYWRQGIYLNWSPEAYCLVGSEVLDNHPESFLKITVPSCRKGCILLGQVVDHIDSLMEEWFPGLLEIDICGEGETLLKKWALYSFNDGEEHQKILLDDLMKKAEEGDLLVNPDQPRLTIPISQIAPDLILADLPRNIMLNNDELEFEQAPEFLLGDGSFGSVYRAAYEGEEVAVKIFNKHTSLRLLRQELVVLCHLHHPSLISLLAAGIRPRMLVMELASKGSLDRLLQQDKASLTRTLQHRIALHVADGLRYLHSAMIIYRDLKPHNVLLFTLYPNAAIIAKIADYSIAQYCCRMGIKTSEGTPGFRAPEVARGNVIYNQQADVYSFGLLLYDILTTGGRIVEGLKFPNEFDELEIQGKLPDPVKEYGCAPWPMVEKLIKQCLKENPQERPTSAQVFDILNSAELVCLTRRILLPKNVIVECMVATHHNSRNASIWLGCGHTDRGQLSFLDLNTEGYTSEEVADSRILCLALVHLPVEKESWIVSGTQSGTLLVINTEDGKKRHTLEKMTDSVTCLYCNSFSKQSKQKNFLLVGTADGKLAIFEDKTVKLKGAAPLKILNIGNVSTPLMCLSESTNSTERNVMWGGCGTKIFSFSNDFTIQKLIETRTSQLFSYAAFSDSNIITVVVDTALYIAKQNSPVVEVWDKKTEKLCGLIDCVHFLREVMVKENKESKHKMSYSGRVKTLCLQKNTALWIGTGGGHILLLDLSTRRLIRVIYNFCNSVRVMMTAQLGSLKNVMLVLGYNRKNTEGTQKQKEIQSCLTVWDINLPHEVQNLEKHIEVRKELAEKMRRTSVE

[20] = test system: phosphorylation of MYPT at Thr850; assay: MYPT Thr850 phosphorylation in HEK-293 cells; type: cell-based, human; settings: 10 μM, 1 h; HEK-293 cells with or without G14V-Rho

endogenous LRRK2 from Swiss-3T3 cells, sequence (Q5S006 whole entry): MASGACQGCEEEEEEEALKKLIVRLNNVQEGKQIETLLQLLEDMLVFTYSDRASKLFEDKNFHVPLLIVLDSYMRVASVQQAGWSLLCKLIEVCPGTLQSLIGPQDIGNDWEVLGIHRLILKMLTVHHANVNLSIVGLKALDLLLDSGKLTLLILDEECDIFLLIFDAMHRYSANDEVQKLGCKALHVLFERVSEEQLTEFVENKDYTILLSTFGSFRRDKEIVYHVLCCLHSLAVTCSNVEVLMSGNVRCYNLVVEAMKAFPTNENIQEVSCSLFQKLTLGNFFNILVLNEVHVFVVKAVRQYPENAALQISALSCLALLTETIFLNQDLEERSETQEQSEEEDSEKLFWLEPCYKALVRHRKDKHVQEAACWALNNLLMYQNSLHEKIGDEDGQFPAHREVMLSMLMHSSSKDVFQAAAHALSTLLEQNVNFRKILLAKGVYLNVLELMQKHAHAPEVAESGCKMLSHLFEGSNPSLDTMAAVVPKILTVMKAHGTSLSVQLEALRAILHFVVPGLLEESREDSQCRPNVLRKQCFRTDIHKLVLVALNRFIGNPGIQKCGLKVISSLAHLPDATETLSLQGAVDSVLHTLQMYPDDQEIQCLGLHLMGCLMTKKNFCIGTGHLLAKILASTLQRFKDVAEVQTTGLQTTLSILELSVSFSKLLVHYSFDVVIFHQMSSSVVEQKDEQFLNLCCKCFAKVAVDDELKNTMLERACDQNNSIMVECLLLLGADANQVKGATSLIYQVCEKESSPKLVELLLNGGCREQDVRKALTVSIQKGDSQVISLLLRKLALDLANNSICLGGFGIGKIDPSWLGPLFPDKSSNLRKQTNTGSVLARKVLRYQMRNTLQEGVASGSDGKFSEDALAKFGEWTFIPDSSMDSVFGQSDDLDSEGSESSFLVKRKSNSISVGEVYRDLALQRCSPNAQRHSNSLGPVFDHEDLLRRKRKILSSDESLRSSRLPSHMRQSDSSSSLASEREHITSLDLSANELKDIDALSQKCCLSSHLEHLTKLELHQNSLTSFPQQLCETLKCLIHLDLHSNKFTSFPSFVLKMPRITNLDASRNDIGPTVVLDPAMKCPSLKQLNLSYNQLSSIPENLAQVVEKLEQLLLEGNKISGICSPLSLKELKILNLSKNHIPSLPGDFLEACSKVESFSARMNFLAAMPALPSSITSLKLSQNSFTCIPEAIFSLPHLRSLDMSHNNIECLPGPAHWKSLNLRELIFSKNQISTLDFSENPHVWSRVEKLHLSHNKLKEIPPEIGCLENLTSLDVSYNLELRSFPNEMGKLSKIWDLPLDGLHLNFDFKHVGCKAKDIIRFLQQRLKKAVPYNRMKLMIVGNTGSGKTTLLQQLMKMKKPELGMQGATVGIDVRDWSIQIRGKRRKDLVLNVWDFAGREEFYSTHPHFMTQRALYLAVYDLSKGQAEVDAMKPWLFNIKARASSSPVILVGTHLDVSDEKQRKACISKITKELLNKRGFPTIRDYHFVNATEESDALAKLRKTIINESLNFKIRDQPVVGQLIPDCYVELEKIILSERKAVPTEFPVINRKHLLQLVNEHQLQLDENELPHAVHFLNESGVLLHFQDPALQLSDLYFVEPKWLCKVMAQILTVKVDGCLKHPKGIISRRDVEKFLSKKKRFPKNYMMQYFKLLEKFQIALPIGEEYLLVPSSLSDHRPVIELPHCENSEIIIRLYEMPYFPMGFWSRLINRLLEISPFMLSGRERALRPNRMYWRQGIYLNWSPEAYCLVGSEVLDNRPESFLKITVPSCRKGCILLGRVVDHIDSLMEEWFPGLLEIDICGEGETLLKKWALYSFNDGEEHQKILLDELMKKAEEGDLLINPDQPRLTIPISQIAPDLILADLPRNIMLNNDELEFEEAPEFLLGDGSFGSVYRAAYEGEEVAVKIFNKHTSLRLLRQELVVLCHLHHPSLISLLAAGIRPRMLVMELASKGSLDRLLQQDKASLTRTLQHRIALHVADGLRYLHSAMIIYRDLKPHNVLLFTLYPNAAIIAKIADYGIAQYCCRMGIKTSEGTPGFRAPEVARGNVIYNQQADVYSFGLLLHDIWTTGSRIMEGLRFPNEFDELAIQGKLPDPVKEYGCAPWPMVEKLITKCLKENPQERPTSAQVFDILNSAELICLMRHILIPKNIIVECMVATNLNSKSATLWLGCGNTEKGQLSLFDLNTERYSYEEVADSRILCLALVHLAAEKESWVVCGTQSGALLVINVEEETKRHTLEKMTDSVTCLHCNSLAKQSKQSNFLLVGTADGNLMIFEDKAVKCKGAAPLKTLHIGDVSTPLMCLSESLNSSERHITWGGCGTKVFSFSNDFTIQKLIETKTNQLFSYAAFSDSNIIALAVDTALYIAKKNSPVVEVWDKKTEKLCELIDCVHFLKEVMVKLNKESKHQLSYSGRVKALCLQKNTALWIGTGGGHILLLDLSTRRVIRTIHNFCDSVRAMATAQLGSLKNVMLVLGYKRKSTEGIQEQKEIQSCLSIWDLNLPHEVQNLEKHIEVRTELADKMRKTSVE
PAK4, sequence (O96013 whole entry): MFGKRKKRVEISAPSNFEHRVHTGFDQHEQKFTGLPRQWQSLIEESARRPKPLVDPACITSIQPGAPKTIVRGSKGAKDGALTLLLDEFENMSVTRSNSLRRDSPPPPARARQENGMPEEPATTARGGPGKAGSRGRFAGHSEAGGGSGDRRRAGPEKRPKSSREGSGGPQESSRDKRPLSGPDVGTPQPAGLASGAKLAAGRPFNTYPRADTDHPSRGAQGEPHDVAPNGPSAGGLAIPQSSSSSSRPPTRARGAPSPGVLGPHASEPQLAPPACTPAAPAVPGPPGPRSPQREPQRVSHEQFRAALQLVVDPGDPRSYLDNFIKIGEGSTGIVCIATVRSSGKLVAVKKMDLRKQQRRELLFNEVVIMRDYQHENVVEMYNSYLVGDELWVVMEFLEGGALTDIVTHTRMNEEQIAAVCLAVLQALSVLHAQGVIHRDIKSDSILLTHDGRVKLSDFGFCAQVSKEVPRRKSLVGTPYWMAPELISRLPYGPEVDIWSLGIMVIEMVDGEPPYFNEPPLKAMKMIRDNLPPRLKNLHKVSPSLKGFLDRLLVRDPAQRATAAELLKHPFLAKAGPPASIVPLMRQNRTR
SmMLCK, sequence (Q15746 923-1914): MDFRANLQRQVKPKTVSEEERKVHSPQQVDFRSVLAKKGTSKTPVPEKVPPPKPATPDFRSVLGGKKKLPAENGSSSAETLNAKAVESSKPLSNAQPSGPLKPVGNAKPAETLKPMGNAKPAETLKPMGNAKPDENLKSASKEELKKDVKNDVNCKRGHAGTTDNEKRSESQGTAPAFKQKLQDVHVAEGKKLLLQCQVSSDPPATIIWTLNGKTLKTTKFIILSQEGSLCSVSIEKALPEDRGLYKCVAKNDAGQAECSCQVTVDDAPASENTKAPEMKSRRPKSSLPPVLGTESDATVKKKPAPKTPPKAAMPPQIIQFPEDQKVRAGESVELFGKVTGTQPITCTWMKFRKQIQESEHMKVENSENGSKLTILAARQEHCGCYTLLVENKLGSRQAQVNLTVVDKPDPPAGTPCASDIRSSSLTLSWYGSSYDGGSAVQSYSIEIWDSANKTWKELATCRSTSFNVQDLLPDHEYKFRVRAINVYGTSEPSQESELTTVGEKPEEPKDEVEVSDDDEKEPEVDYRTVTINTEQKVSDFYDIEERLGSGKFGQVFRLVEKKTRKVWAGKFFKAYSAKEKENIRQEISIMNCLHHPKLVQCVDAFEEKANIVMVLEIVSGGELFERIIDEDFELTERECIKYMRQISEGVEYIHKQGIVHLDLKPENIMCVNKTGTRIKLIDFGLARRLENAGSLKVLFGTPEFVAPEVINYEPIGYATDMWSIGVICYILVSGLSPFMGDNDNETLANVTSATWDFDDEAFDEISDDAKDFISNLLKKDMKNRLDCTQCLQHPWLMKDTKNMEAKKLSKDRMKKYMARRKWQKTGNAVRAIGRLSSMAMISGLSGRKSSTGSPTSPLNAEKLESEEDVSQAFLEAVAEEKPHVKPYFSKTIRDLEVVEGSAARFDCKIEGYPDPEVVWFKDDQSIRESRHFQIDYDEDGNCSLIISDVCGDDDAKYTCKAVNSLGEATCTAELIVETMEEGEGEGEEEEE
PHK, sequence (Q16816 whole entry): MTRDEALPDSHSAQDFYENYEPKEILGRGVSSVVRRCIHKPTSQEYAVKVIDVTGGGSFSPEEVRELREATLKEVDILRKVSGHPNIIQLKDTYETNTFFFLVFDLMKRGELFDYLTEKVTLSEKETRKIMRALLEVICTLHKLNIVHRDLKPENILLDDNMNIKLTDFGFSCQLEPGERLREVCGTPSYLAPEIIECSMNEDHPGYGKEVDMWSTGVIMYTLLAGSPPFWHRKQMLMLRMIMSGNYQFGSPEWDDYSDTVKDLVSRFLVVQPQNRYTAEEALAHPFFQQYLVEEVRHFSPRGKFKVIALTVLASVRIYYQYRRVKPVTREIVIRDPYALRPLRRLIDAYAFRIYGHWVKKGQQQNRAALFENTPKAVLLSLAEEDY
Aurora B kinase, sequence (Q96GD4 whole entry): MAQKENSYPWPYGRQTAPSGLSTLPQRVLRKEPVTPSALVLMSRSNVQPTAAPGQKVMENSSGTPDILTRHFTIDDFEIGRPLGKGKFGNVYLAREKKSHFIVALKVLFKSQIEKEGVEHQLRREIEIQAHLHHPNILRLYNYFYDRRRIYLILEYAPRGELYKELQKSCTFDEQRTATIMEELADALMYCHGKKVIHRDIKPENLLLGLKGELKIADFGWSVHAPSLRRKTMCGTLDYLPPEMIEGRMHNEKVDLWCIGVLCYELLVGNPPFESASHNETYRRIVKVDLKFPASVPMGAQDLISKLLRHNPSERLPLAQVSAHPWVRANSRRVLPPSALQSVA

Compound: CCN(CC)CCNC(=O)c1c(C)[nH]c(/C=C2\C(=O)Nc3ccc(F)cc32)c1C [Sunitinib, sunitinib]
remaining activity at 1 µM [1]: 26 ± 5%
remaining activity at 1 µM [2]: 77 ± 9%
remaining activity at 1 µM [3]: 26 ± 3%
remaining activity at 0.1 µM [4]: 11 ± 1%
remaining activity at 0.1 µM [5]: 72 ± 5%
percentage of kinase activity compared with control [6]: 51 ± 3%
remaining activity at 1 µM [7]: 40 ± 6%
remaining activity at 1 µM [8]: 72 ± 1%
remaining activity at 1 µM [9]: 72 ± 5%
remaining activity at 1 µM [10]: 11 ± 1%
remaining activity at 1 µM [11]: 72 ± 6%
remaining activity at 0.1 µM [12]: 77 ± 2%
remaining activity at 1 µM [13]: 77 ± 24%
remaining activity at 1 µM [14]: 33 ± 6%
effect on ERM protein phosphorylation [15]: did not inhibit
effect on protein kinase activity in LRRK2 immunoprecipitate [16]: suppressed
number of kinases significantly inhibited [17]: 12

Compound: O=S(=O)(c1cccc2cnccc12)N1CCCNCC1 [HA-1077, fasudil]
inhibition of LRRK2[G2019S] (in words) [19]: weakly

Compound: Cc1cncc2cccc(S(=O)(=O)N3CCCNC[C@@H]3C)c12 [H-1152, (S)-(+)-2-methyl-1-[(4-methyl-5-isoquinoline)sulfonyl]-homopiperazine]
effect on phosphorylation of MYPT at Thr850 [20]: ablated phosphorylation
effect on ERM protein phosphorylation [15]: did not inhibit
effect on protein kinase activity in LRRK2 immunoprecipitate [16]: suppressed

Compound: CCn1c(-c2nonc2N)nc2cnc(Oc3cccc(NC(=O)c4ccc(OCCN5CCOCC5)cc4)c3)cc21 [GSK269962A]
effect on phosphorylation of MYPT at Thr850 [20]: ablated phosphorylation
effect on ERM protein phosphorylation [15]: did not inhibit
number of kinases significantly inhibited [17]: seven

Compound: O=S(=O)(NCCNCC=Cc1ccc(Br)cc1)c1cccc2cnccc12 [H-89, N-[2-(p-bromocinnamylamino)ethyl]-5-isoquinolinesulfonamide]
inhibition of LRRK2[G2019S] (in words) [19]: weakly

Compound: C[C@@H](N)[C@H]1CC[C@H](C(=O)Nc2ccncc2)CC1 [Y-27632]
effect on phosphorylation of MYPT at Thr850 [20]: ablated phosphorylation
effect on ERM protein phosphorylation [15]: did not inhibit

inhibition of LRRK2 at high dose (in words) ([19]; doses as high as 30 μM): does not significantly inhibit
Compound: CC1=C(C(=O)Nc2cc3cn[nH]c3cc2F)C(c2ccc(C(F)(F)F)cc2)CC(=O)N1 (stereo not shown) [GSK429286A]
effect on phosphorylation of MYPT at Thr850 [20]: ablated phosphorylation
effect on ERM protein phosphorylation [15]: did not inhibit
